Literature values, collected in patent publication US7521430B2, “N-glucoside compounds having an inhibitory activity against sodium-dependent glucose transporter” (Mitsubishi Tanabe Pharma Corporation, priority 2003, dated 2009).

Tested on: diabetic animal models
Settings: continuous subcutaneous administration

For `O=C(CCc1ccc(O)cc1)c1c(O)cc(O)cc1O[C@@H]1O[C@H](CO)[C@@H](O)[C@H](O)[C@H]1O` [phlorizin], the “hyperglycemia / blood glucose level” value is listed as “hyperglycemia is normalized”.
